For series [1], the system named is PqsR (pqsA promoter, PA14 mCTX::PpqsA-lux). Kind of series: Whole cell biosensor reporter assay, PA14 mCTX::PpqsA-lux. Type of series: cell-based, Pseudomonas aeruginosa. The note with it: for IC50: Mean ± SD, n = 3; for activity at 10 µM: PA14, read-out: PA14 Remaining Activity %; for PqsR inhibitory activity (in words), PA14: screen at 10 µM. As for the experimental part: (§1) To determine the ability of the quinolines to inhibit PqsR functionality, the P. aeruginosa biosensor strains, PAO1-L and PA14, incorporating a chromosomal mCTX::PpqsA-lux transcriptional fusion, were used. These report on the activation of the pqsA promoter, regulated by PqsR [25]. PAO1-L and PA14 were chosen because they are genetically amenable and belong to the two major P. aeruginosa genomic groups. The quinolone compounds were incubated with the corresponding strain, and luminescence and optical density readings were recorded to monitor the effect of the quinolines on PqsR activity and bacterial growth, respectively. The compounds were screened at 10 µM concentration, and the activity was compared to a control of DMSO (0.1%) (Figure 3a). To be considered a hit, a threshold of at least 50% inhibition of the test compound, relative to the negative control had to be reached, without affecting bacterial growth. […] Concentration-response experiments were then carried out to determine the IC50 values (Figure 3b,c), which are summarised in Table 1.
(§2) Strains PA14 mCTX::PpqsA-lux and PAO1-L mCTX::PpqsA-lux were constructed using plasmid mini-CTX::PpqsA-lux, as previously described, and the assay was performed according to a published protocol. For screening, the compounds were tested at a concentration of 10 µM, which was prepared from a 10 mM stock, in DMSO.

The test system of series [2] is PqsR (pqsA promoter, PAO1-L mCTX::PpqsA-lux). In words: Whole cell biosensor reporter assay, PAO1-L mCTX::PpqsA-lux. Type of series: cell-based, Pseudomonas aeruginosa. The note with it: for IC50: Mean ± SD, n = 3; for activity at 10 µM: PAO1, read-out: PAO1-L Remaining Activity %; for PqsR inhibitory activity (in words), PAO1-L: screen at 10 µM / dose-response. The procedure: as §1, §2
Background: A reporter such as luciferase makes a cellular process visible.

Series [3] concerns pyocyanin production by PA14. Kind of series: Pyocyanin production assay, PA14. The note with it: 3x IC50, 16 h. Type of series: cell-based, Pseudomonas aeruginosa. The procedure: (§3) Pyocyanin is a blue redox-active toxin, produced by P. aeruginosa and strongly-controlled by PqsR via the regulation of pqsE expression. Pyocyanin is essential for the pathogenicity of P. aeruginosa in lung infections. The effect of the PqsR inhibitors on pyocyanin production by PA14 and PAO1-L strains, when grown in the presence or absence of the inhibitors, was investigated (Figure 4).
(§4) The experiment was performed following a published protocol with minor modifications. P. aeruginosa strains were cultured into 5 mL fresh medium overnight. […] Cells were centrifuged at 10,000 RCF for 10 min (Allegra 64R centrifuge, Beckman Coulter, High Wycombe, UK) and the supernatant was transferred to 15 mL falcon tubes with a HSW 10 mL Soft-Ject Syringe and a […] Sartorius syringe-driven filter (Fisher Brand, Loughborough, UK). Pyocyanin pigment was extracted into chloroform by mixing 7.5 mL of supernatant with 4.5 mL of chloroform. Pyocyanin was further extracted into 1.5 mL of 0.2 M HCL, which gave a pink/red solution, and the absorbance was measured at 520 nm.

For series [4], the system named is pyocyanin production by PAO1-L. In words: Pyocyanin production assay, PAO1-L. Type of series: cell-based, Pseudomonas aeruginosa. The note with it: 3x IC50, 16 h. The procedure:
as §3, §4

Series [5] concerns AQ production in PA14. In words: Alkylquinolone (HHQ, PQS, HQNO) production by LC-MS/MS, PA14. Type of series: cell-based, Pseudomonas aeruginosa. The note with it: 3x IC50, 16 h, culture supernatant. As for the experimental part:
HQNO, can protect Staphylococcus aureus from vancomycin [31] and contributes to the environmental competitiveness of P. aeruginosa, through its activity as a potent inhibitor of the cytochrome bc1 complex. […] LC-MS/MS was used to quantify the major AQs HHQ, PQS and HQNO after incubation of the P. aeruginosa strains with the hit compounds, for 16 h. The assay was performed using both PAO1-L and PA14 strains which were treated with PqsR antagonists at concentrations three-fold higher than their IC50 values. The results obtained depended on the inhibitor and strain tested (Figure 5).
For each test sample, 100 µL of sterile filtered supernatant (the same preparation as for pyocyanin) was spiked with 10 µL of an internal standard solution (10 µM d4-PQS in MeOH), and diluted with water, to a total volume of 500 µL. Samples were then extracted three times with an 0.5 mL aliquot of ethyl acetate, vortex mixing the aqueous/organic mix for 2 min, then removing the organic phase once the layers had successfully partitioned. For each sample, the combined organic extracts were dried under vacuum and re-dissolved in 100 µL MeOH prior to analysis. For the LC-MS/MS analysis of supernatant extracts, the chromatography was achieved using a Shimadzu series 10AD VP LC system (Columbia, MD, USA). The LC column, maintained at 40 °C, was a Phenomenex Gemini C18 (3.0 µm, 100 × 3.0 mm) (Macclesfield, Cheshire, UK) with an appropriate guard column. Mobile phase A was 0.1% (v/v) formic acid in water containing 2 mM 2-picolinic acid, and mobile phase B 0.1% (v/v) formic acid in methanol. The flow rate throughout the chromatographic separation was 450 µL/min. After an injection of a 2 µL/sample, a binary gradient, beginning initially at 30% B, increased linearly to 99% B over 5 min. The composition remained at 99% B for 3 min, decreased to 30% B over 1 min, and stayed at this composition for 4 min, to allow for column equilibration. […] Where chromatographic peaks for HHQ, HQNO and PQS were detected, a peak area was determined, and analyte peak area/internal standard peak area calculated.

Series [6] can be described thus: Hepatic microsomal stability, human. Type of series: in vitro ADME. The note with it: liver microsomes, pH 7.4, 0.5 mg/mL protein, NADPH, 37 °C; for half-life at 1 µM: read-out: Microsomal Stability Human t1/2. The procedure:
Dilutions of a 1 mM test compound DMSO stock solution were prepared in buffer (typically 0.01 M phosphate buffered saline (pH 7.4) so that the final DMSO concentration was 0.1% v/v and the final test compound concentration tested was 1 µM. Following addition of protein (0.5 mg/mL final) and NADPH, the samples were pre-incubated for 10 min prior to the start of the incubation by the addition of test compound. The test compounds were then incubated (n = 2; 1 µM final concentration) at 37 °C with tissue microsomes. Aliquots were sampled at several time points and mixed with acetonitrile (containing internal standard) to terminate the reaction and precipitate the proteins. All the samples were mixed, centrifuged and the supernatants analysed by UPLC-MS/MS. The intrinsic clearance (Clint) and half-life (t 1/2) values were determined from the slope of the parent depletion curve. Control compounds for low, moderate and high intrinsic clearance, respectively, for both human and rat microsomes, were included.
In general terms: Liver microsomes are a subcellular fraction often used to study metabolism.

Setting [7] is: Pseudomonas aeruginosa, PA14, read-out: IC50 PA14, PpqsA-lux reporter.
Where [8] appears, read: read-out: IC50 PA14, PpqsA-lux reporter.
[9] abbreviates: Pseudomonas aeruginosa, PAO1, read-out: IC50 PAO1-L, PpqsA-lux reporter.
[10] abbreviates: strain not singled out in the sentence.

The values that follow come from publication PMC6017655, “In Silico and in Vitro-Guided Identification of Inhibitors of Alkylquinolone-Dependent Quorum Sensing in Pseudomonas aeruginosa” (Molecules : A Journal of Synthetic Chemistry and Natural …, 2018).

“Also recorded” adds a separate entry of the source. Like-named read-outs stand apart in the source and are kept apart here.

For orientation: IC50 means the concentration that inhibits the measured activity by half. For orientation: microsomal CLint means a measure of how fast metabolising enzymes remove a compound, apart from limits set by blood flow. Consider `CC(=O)N1N=C(c2ccccc2)CC1c1cccc(Nc2ccnc3cc(Cl)ccc23)c1` (stereo not drawn) [IIa], for which the IC50 in series [1] (setting [7]) was 3700 nM; in series [1] (setting [8]) it was 4000 ± 1620 nM; in series [2] (setting [9]), 1500 nM; in series [2] (read-out: IC50 PAO1-L, PpqsA-lux reporter) it was 1600 ± 290 nM. The figures for the activity at 10 µM in series [1] (Pseudomonas aeruginosa) and in series [2] (Pseudomonas aeruginosa) were 19.7 ± 1.9% and 31.6 ± 6.6%, respectively. Besides, the “PqsR inhibitory activity (in words), PA14” value in series [1] is on record as “strong PqsR inhibitory activity”. Also, in series [2], the “PqsR inhibitory activity (in words), PAO1-L” value is “strong PqsR inhibitory activity”. In series [3], the “Effect on pyocyanin production (in words), PA14” value is “weakest effect”. Besides, the “Reduction of pyocyanin production, PA14” value in series [3] (setting [10]) is “over 25%”. For the same compound, the “Effect on pyocyanin production (in words), PAO1-L” value in series [4] is “weakest effect”. The “Reduction of pyocyanin production, PAO1-L” value in series [4] (setting [10]) was “over 25%”. The “Inhibition of AQ production (in words), PA14” value in series [5] is “moderate effect”. Also, the microsomal CLint at 1 µM in series [6] stood at 73 µL/min/mg. Moreover, in series [6], the half-life at 1 µM turned out to be 19 min.

With `O=CN1N=C(c2ccccc2)CC1c1cccc(Nc2ccnc3cc(Cl)ccc23)c1` (stereo not drawn) [Ia], the IC50 in series [1] (setting [7]) worked out at 2200 nM; in series [1] (setting [8]) it was 2300 ± 510 nM; in series [2] (setting [9]), 12400 ± 1790 nM. For the same compound, the results for the activity at 10 µM in series [1] (Pseudomonas aeruginosa) and in series [2] (Pseudomonas aeruginosa) were 18.7 ± 1.98% and 25.8 ± 1.17%, respectively. The “PqsR inhibitory activity (in words), PA14” value in series [1] is “strong PqsR inhibitory activity”. In addition, the “PqsR inhibitory activity (in words), PAO1-L” value in series [2] is listed as “strong PqsR inhibitory activity; also recorded: modest activity”. Further, in series [3], the “Effect on pyocyanin production (in words), PA14” value was “strongest effect”. For the same compound, in series [4], the “Effect on pyocyanin production (in words), PAO1-L” value is “strongest effect”. Besides, in series [5], the “Inhibition of AQ production (in words), PA14” value is given as “strongly-inhibited AQ production”. Further, the microsomal CLint at 1 µM in series [6] stood at 60.3 µL/min/mg. For the same compound, the half-life at 1 µM in series [6] was determined as 23.3 min.
